This is an account of results in ChEMBL document CHEMBL3272060, “Selective inhibition of the monosynaptic spinal reflex by a series of hydroxylated alkylaminoindans” (J Med Chem, 1977).

Data set [1] concerns Felis catus. Kind of data set: Inhibition of electrical stimulation-induced polysynaptic spinal reflex response in unanesthetized decerebrated cat spinal cord segment at 5 mg/kg, iv relative to control. Type of data set: functional.
In data set [2] the test system is Felis catus. In words: Inhibition of electrical stimulation-induced monosynaptic spinal reflex response in unanesthetized decerebrated cat spinal cord segment at 5 mg/kg, iv relative to control. It is filed as functional.
Data set [3] has as its system Felis catus. In words: Toxicity in cat assessed as motor deficit at 2 to 4 mg/kg, iv. It is filed as organism-based. Further details: dose 2-4 mg/kg, route intravenous. The settings on record: in vivo.
Data set [4] deals with Felis catus. Kind of data set: Inhibition of electrical stimulation-induced monosynaptic spinal reflex response in unanesthetized decerebrated cat spinal cord segment assessed as duration at 5 mg/kg, iv. It is filed as functional.
The test system of data set [5] is Felis catus. Kind of data set: Toxicity in cat assessed as motor deficit at 10 mg/kg, po. Details: dose 10 mg/kg, route oral. To be noted: in vivo. It is filed as organism-based.
Data set [6] has as its system Felis catus. In words: Induction of electrical stimulation-induced monosynaptic spinal reflex response in unanesthetized decerebrated cat spinal cord segment at 5 mg/kg, iv relative to control. It is filed as functional.
Data set [7] relates to Felis catus. In words: Inhibition of electrical stimulation-induced polysynaptic spinal reflex response in unanesthetized decerebrated cat spinal cord segment assessed as duration at 5 mg/kg, iv. It is filed as functional.
Data set [8] relates to Felis catus. Kind of data set: Inhibition of electrical stimulation-induced monosynaptic spinal reflex response in unanesthetized decerebrated cat spinal cord segment at 10 mg/kg, iv relative to control. Type of data set: functional.
For data set [9], the system named is Felis catus. Kind of data set: Inhibition of electrical stimulation-induced monosynaptic spinal reflex response in unanesthetized decerebrated cat spinal cord segment at 2 mg/kg, iv relative to control. It is filed as functional.
Data set [10] deals with Felis catus. Kind of data set: Inhibition of electrical stimulation-induced monosynaptic spinal reflex response in unanesthetized decerebrated cat spinal cord segment assessed as duration at 10 mg/kg, iv. Type of data set: functional.
The subject of data set [11] is Felis catus. In words: Inhibition of electrical stimulation-induced monosynaptic spinal reflex response in unanesthetized decerebrated cat spinal cord segment assessed as duration at 2 mg/kg, iv. Type of data set: functional.
Data set [12] has as its system Felis catus. Kind of data set: Inhibition of electrical stimulation-induced polysynaptic spinal reflex response in unanesthetized decerebrated cat spinal cord segment at 2 mg/kg, iv relative to control. It is filed as functional.
In data set [13] the test system is Felis catus. Kind of data set: Inhibition of electrical stimulation-induced polysynaptic spinal reflex response in unanesthetized decerebrated cat spinal cord segment at 10 mg/kg, iv relative to control. Type of data set: functional.
Data set [14] relates to Felis catus. In words: Induction of electrical stimulation-induced monosynaptic spinal reflex response in unanesthetized decerebrated cat spinal cord segment assessed as duration at 5 mg/kg, iv. Type of data set: functional.

As a reminder, the inhibition in vivo is the percentage by which the read-out fell short of the control. With `CC(=O)O[C@H]1CC2=C(CC(N(C)C)C2)C[C@H]1OC(C)=O.Cc1ccc(S(=O)(=O)O)cc1` (stereo not given in full), the inhibition in vivo at 5 mg/kg in [1] and in data set [2] was 0% throughout. The Activity entry in [3] and in data set [5] was “Non-toxic” in each case. Moreover, the Time in data set [4] was determined as 1 h.
As for `CN(C)C1CC2=C(C1)C[C@H](O)[C@H](O)C2` (stereo not given in full), the inhibition in vivo at 5 mg/kg in [1] and in [6] was 0% each time. Moreover, the Activity entry in data set [3] and in [5] was “Non-toxic” each time.
As for `OC1CCC2=C(C1)CC(NC1CCCCC1)C2` (stereo not given), the inhibition in vivo at 5 mg/kg in data set [1] and in data set [2] was 0% each time.
With `O[C@@H]1CC2=C(CC(N3CCCCC3)C2)C[C@@H]1O` (stereo not given in full), the inhibition in vivo at 5 mg/kg in data set [1] and in data set [2] was 0% each time. The Activity result in data set [3] and in data set [5] was “Non-toxic” each time. Moreover, the Time in [4] was less than 0.25 h.
`CC(=O)O[C@H]1CC2=C(CC(N3CCCCC3)C2)C[C@H]1OC(C)=O` (stereo not given in full): the results for the inhibition in vivo at 5 mg/kg in data set [1] and in [2] were 0% and 50%, respectively. The Activity entry in [3] and in [5] was “Non-toxic” throughout. Further, the Time in data set [4] was greater than 2 h.
With `COc1cc(C(=O)OC2CCC3=C(C2)CC(N2CCCCC2)C3)cc(OC)c1OC` (stereo not given), the inhibition in vivo at 5 mg/kg in data set [1] and in [2] was 0% throughout.
For the compound `OC1CCC2=C(C1)CC(N1CCCC1)C2` (stereo not given), the Time in data set [7] was less than 15 min; in data set [4] it was 0.25 h. Besides, the inhibition in vivo at 5 mg/kg in data set [1] was determined as 0%; in data set [2], 20%. Moreover, the Activity entry in [3] and in data set [5] was “Non-toxic” each time.
With `CCCCNC1CC2=C(CC(O)CC2)C1` (stereo not given), the inhibition in vivo at 5 mg/kg in data set [1] and in [2] was 0% throughout.
Regarding `CCCCN(Cc1ccccc1)C1CC2=C(CC(O)CC2)C1.Cl` (stereo not given), the inhibition in vivo at 5 mg/kg is 0% in [1] and 20% in data set [2]. Further, the Activity entry in data set [3] and in [5] was “Non-toxic” throughout. The Time in data set [4] came to 1 h.
On to `Cl.OC1CCC2=C(C1)CC(CN1CCCCC1)C2` (stereo not given), for which the inhibition in vivo at 5 mg/kg in data set [1] and in data set [2] was 0% in each case. The Activity entry in data set [3] and in data set [5] was “Non-toxic” throughout. The Time in data set [4] worked out at 0.25 h.
For `O[C@@H]1CC2=C(CC(CN3CCCCC3)C2)C[C@@H]1O` (stereo not given in full), the inhibition in vivo at 5 mg/kg in data set [1] and in [2] was 0% throughout.
With `Cl.OC1CCC2=C(C1)CC(CCN1CCCCC1)C2` (stereo not given), the inhibition in vivo at 5 mg/kg in data set [1] amounted to 0%; in data set [2], 20%. The Activity entry in data set [3] and in data set [5] was “Non-toxic” in each case. Further, the Time in data set [4] came to 0.25 h.
For `CN1CC2=C(C[C@H](O)[C@H](O)C2)C1`, the inhibition in vivo at 5 mg/kg in data set [1] and in data set [2] was 0% in each case. Besides, the Activity entry in data set [3] and in data set [5] was “Non-toxic” throughout.
For the compound `CC(=O)O[C@H]1CC2=C(C[C@@H]1OC(C)=O)CN(C)C2`, the inhibition in vivo at 5 mg/kg in data set [1] and in data set [2] was 0% in each case.
Consider `OC1CCC2=C(C1)CN(C1CCCCC1)C2` (stereo not given), for which the inhibition in vivo at 5 mg/kg in data set [1] and in [2] was 0% in each case. Moreover, the Activity entry in data set [3] and in data set [5] was “Non-toxic” in each case. Further, the Time in data set [4] is less than 0.25 h.
On to `OC1CC=C(CCN2CCCCC2)CC1O` (stereo not given), for which the inhibition in vivo at 5 mg/kg in [1] and in data set [2] was 0% throughout.
In the case of `CC(=O)OC1CC=C(CCN2CCCCC2)CC1OC(C)=O` (stereo not given), the inhibition in vivo at 5 mg/kg in data set [1] and in [2] was 0% in each case.
`CN(C)CCCC1CC[C@@]2(O)CC=CC[C@]12O` (stereo not given in full): the inhibition in vivo at 5 mg/kg in [1] and in data set [2] was 0% throughout. The Activity entry in [3] and in data set [5] was “Non-toxic” each time.
On to `Oc1ccc2c(c1)CC(N1CCCCC1)C2` (stereo not given), for which the inhibition in vivo at 5 mg/kg in [1] is 0%; in [2] it was greater than 80%. Besides, the Activity entry in data set [3] and in data set [5] was “Non-toxic” each time. In [4], the Time was less than 0.25 h.
On to `Br.OC1CC2=C(CC=CC2)C1CCCN1CCCCC1` (stereo not given), for which the inhibition in vivo at 5 mg/kg in data set [1] turned out to be 0%; in [2], 20%. The Activity entry in data set [3] and in [5] was “Non-toxic” throughout. Besides, the Time in data set [4] was 1 h.
On to `CN(C)CCCC1C2=C(CC=CC2)CCC1O` (stereo not given), for which the inhibition in vivo at 5 mg/kg in [1] and in data set [2] was 0% throughout.
Regarding `O[C@@H]1CC2CC(CN3CCCCC3)CC2C[C@@H]1O` (stereo not given in full), the inhibition in vivo at 5 mg/kg in data set [1] and in data set [2] was 0% each time.
Turning to `OC1CCC2=C(C1)CC(N1CCCCC1)C2` (mixture of isomers; 5), the inhibition in vivo at 10 mg/kg in data set [8] is greater than 80%; in data set [13], 0%. For the same compound, the “inhibition (INH)” value in [9] is recorded as greater than 80%. Besides, the Time was greater than 2 h in [10] and 1 h in data set [11]. The Activity entry in data set [3] and in data set [5] was “Non-toxic” each time. In addition, the inhibition in vivo at 2 mg/kg in data set [12] came out at 0%.
On to `OC1CCC2=C(C1)CC(N1CCCCC1)C2` (mixture of isomers; 6), for which, in data set [9], the “inhibition (INH)” value stood at 50%. Further, in [11], the Time is 0.25 h.
Turning to `CC(=O)O[C@H]1CC2=C(CC(N(C)C)C2)C[C@@H]1OC(C)=O` (relative stereo), the inhibition in vivo at 5 mg/kg in data set [1] and in data set [2] was 0% each time.
With `O[C@H]1CC2=C(CC(N3CCCCC3)C2)C[C@@H]1O` (relative stereo), the inhibition in vivo at 5 mg/kg in [1] stood at 0%; in data set [2], 50%. The Activity result in [3] and in data set [5] was “Non-toxic” each time. Further, the Time in data set [4] turned out to be 0.25 h.
With `CC(=O)O[C@@H]1CC2=C(CC(N3CCCCC3)C2)C[C@H]1OC(C)=O` (relative stereo), the inhibition in vivo at 5 mg/kg in data set [1] and in data set [2] was 0% throughout.
For `O[C@@H]1CC2=C(CC(N3CCCCC3)C2)C[C@H]1Oc1ccccc1` (relative stereo), the inhibition in vivo at 5 mg/kg was determined as 0% in [1] and 20% in [2]. In addition, the Activity result in data set [3] and in data set [5] was “Non-toxic” in each case. Also, the Time in data set [4] was less than 0.25 h.
`O[C@@H]1CC2=C(CC(N3CCCCC3)CC2)C[C@@H]1O` (relative stereo): the inhibition in vivo at 5 mg/kg in data set [1] and in data set [2] was 0% throughout.
`CC(=O)O[C@H]1CC2=C(CCC(N3CCCCC3)C2)C[C@H]1OC(C)=O` (relative stereo): the inhibition in vivo at 5 mg/kg in [1] and in [2] was 0% throughout.
As to `O[C@@H]1CC2=C(CC(CN3CCCCC3)C2)C[C@H]1O` (relative stereo), the inhibition in vivo at 5 mg/kg came out at 0% in [1] and 20% in data set [2]. Further, the Activity entry in data set [3] and in data set [5] was “Non-toxic” in each case. Also, the Time in data set [4] is 0 h.
For `CC(=O)O[C@@H]1CC2=C(CC(CN3CCCCC3)C2)C[C@H]1OC(C)=O.Cc1ccc(S(=O)(=O)O)cc1` (relative stereo), the figures for the inhibition in vivo at 5 mg/kg in [1] and in data set [2] were 0% and 20%, respectively. In addition, the Activity entry in data set [3] and in data set [5] was “Non-toxic” throughout. Besides, the Time in data set [4] is less than 0.25 h.
For `CN1CC2=C(C[C@H](O)[C@@H](O)C2)C1` (relative stereo), the inhibition in vivo at 5 mg/kg in data set [1] and in [2] was 0% throughout. In addition, the Activity result in data set [3] and in data set [5] was “Non-toxic” throughout. For the same compound, the Time in data set [4] is less than 0.25 h.
Consider `O[C@]12CC=CC[C@]1(O)CC(N1CCCCC1)C2` (relative stereo), for which the Time in data set [7] and in data set [14] was less than 15 min in each case. The inhibition in vivo at 5 mg/kg in [6] stood at 0%. Further, the Activity entry in data set [3] and in [5] was “Non-toxic” each time.
As for `OC1CCC2=C(C1)CC(N1CCCCC1)C2` (stereo in doubt; 7), the Time in data set [11] is greater than 2 h.
